Data published in ChEMBL document CHEMBL4765391, “Design, synthesis, and Structure-Activity Relationships (SAR) of 3-vinylindazole derivatives as new selective tropomyosin receptor kinases (Trk) inhibitors” (Eur J Med Chem, 2020).
pIC50, pKd: −log10 of the molar value. Active and inactive are the calls of the source. The calls are words filed in the database; no cut-off is given here.

What was measured:
[1] = tested on: Proto-oncogene tyrosine-protein kinase receptor Ret (Homo sapiens), P07949 [V804L]; assay: Binding affinity to RET V804L mutant (unknown origin)
[2] = biological target: T1, High affinity nerve growth factor receptor (Homo sapiens, UniProt P04629); assay: Inhibition of TrkA (unknown origin) in mouse BaF3 cells transfected with wild type CD74-NTK1 assessed as inhibition of ERK expression measured after 6 hrs by Western blot assay; format: cell-based; conditions: dose 0.3-200 nM
T1 sequence (P04629 33-796 limits assumed): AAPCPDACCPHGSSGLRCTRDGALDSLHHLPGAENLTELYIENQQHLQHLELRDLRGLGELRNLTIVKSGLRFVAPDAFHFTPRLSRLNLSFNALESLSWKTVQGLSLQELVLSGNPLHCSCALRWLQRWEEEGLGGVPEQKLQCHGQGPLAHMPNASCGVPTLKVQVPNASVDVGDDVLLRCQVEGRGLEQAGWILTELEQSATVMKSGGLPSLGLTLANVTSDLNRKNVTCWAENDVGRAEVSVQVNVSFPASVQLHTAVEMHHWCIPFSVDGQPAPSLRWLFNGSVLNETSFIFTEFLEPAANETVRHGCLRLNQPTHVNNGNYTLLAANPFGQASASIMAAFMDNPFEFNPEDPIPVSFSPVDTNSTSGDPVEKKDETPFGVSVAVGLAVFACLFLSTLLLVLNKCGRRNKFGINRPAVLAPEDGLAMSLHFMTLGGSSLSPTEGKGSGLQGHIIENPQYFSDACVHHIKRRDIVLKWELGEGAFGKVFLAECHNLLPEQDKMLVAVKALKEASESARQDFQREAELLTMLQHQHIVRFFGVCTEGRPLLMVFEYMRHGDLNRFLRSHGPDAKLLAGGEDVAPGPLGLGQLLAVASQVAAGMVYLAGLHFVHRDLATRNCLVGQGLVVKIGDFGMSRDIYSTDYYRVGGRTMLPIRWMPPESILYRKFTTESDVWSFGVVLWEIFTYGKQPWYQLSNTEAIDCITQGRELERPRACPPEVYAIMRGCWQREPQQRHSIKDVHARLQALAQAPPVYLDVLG

[3] = AUC (0 to infinity) in Sprague-Dawley rat at 2 mg/kg, iv measured after 24 hrs by LC-MS/MS analysis; format: ADME, organism-based; parameters: route intravenous, dose 2 mg/kg, time 24 hrs; conditions: in vivo
[4] = biological target: T1, High affinity nerve growth factor receptor; assay: Inhibition of TrkA (unknown origin) in mouse BaF3 cells transfected with wild type CD74-NTK1 assessed as inhibition of PLCgamma 1 expression measured after 6 hrs by Western blot assay; format: cell-based
[5] = tested on: BaF3; assay: Antiproliferative activity against mouse BaF3 cells assessed as cell viability measured after 72 hrs by Micro plate reader method; format: functional, cell-based; conditions: BaF3, 72 h
[6] = biological target: Tyrosine-protein kinase JAK2 (Homo sapiens, UniProt O60674); assay: Binding affinity to wild-type human partial length JAK2 JH1 catalytic domain (A829 to G1132 residues) expressed in mammalian expression system by Kinomescan method relative to control
[7] = tested on: Proto-oncogene tyrosine-protein kinase receptor Ret (Homo sapiens), P07949 [V804M]; assay: Binding affinity to RET V804M mutant (unknown origin)
[8] = tested on: BaF3; assay: Antiproliferative activity against mouse BaF3 cells transfected with wild type ETV6-NTRK3 (unknown origin) harbouring G623R mutation assessed as cell viability measured after 72 hrs by Micro plate reader method; format: functional, cell-based; conditions: BaF3, 72 h
[9] = biological target: Fibroblast growth factor receptor 1 (Homo sapiens, UniProt P11362); assay: Binding affinity to wild-type human partial length FGFR1 (P357 to V669 residues) expressed in bacterial expression system by Kinomescan method relative to control
Sequence of Fibroblast growth factor receptor 1 (P11362 whole entry, the tested form may be a part): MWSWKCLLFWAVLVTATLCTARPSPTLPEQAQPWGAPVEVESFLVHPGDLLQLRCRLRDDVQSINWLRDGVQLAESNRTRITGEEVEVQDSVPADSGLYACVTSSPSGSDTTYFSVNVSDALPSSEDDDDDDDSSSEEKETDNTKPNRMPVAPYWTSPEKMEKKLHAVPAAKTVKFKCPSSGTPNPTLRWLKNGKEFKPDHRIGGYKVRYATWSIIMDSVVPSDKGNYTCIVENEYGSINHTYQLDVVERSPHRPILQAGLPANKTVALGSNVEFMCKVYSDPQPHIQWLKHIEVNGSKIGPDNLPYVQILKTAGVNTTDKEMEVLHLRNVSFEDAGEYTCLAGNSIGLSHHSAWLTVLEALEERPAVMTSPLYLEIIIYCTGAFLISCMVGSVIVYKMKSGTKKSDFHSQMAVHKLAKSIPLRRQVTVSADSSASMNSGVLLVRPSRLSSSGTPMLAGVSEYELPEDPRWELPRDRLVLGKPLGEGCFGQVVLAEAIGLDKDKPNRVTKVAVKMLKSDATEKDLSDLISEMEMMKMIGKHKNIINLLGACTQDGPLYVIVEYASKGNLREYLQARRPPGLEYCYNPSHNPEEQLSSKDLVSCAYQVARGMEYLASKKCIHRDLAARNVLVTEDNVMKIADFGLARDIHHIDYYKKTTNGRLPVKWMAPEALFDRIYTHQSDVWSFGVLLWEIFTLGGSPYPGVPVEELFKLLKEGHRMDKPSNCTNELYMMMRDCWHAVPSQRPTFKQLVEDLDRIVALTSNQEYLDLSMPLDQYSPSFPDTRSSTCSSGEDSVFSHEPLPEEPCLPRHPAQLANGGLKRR

[10] = AUC (0 to infinity) in Sprague-Dawley rat at 10 mg/kg, po measured after 24 hrs by LC-MS/MS analysis; format: ADME, organism-based; parameters: route oral, dose 10 mg/kg, time 24 hrs; conditions: in vivo
[11] = Clearance in Sprague-Dawley rat at 2 mg/kg, iv measured after 24 hrs by LC-MS/MS analysis; format: ADME, organism-based; conditions: in vivo
[12] = biological target: NUAK family SNF1-like kinase 1 (Homo sapiens, UniProt O60285); assay: Binding affinity to wild-type human partial length ARK5 (E25 to I332 residues) expressed in bacterial expression system by Kinomescan method relative to control
Sequence of NUAK family SNF1-like kinase 1 (O60285 whole entry, the tested form may be a part): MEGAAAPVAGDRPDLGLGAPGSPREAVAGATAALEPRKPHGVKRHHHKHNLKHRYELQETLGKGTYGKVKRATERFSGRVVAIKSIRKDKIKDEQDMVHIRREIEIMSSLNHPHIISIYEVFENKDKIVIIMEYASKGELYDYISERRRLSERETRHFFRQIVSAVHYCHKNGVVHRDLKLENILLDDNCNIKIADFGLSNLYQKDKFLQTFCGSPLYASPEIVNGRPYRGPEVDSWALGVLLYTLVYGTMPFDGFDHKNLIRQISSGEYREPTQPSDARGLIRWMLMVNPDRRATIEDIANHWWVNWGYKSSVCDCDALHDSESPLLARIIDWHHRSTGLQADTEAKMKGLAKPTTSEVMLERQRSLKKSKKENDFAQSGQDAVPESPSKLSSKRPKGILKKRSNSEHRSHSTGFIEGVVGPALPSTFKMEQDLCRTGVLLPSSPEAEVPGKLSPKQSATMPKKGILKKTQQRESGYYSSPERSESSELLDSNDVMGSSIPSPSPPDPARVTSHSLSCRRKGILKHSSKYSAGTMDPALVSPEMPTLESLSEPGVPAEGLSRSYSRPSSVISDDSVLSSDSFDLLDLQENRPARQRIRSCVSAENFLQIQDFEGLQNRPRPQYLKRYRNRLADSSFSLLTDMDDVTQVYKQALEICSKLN

[13] = tested on: Receptor-type tyrosine-protein kinase FLT3 (Homo sapiens), P36888 [D835H]; assay: Binding affinity to FLT3 D835H mutant (unknown origin)
[14] = biological target: BDNF/NT-3 growth factors receptor (Homo sapiens, UniProt Q16620); conditions: BaF3, dose 0.3-200 nM, time 6.0 hrs
Sequence of BDNF/NT-3 growth factors receptor (Q16620 32-822 limits assumed): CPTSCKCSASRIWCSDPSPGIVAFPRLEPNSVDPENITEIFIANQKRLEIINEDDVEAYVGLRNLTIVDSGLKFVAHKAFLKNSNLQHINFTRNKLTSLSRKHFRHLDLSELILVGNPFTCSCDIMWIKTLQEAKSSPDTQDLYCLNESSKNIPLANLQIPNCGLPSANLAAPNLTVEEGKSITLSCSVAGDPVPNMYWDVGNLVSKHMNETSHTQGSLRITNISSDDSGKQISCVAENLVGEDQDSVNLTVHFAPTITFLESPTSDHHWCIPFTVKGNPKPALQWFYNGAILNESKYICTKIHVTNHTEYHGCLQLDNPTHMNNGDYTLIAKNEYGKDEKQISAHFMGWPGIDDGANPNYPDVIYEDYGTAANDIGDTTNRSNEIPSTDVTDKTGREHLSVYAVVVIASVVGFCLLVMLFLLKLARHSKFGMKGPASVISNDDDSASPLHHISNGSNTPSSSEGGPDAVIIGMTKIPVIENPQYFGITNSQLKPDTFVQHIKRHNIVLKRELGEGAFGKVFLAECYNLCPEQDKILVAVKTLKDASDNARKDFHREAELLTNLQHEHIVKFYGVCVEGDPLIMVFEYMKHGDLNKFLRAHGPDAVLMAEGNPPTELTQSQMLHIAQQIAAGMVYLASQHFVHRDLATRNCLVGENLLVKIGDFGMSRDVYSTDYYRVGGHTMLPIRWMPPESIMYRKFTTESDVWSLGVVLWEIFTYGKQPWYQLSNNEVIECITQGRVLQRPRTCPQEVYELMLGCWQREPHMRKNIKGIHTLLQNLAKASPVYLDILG

[15] = biological target: Tyrosine-protein kinase JAK1 (Homo sapiens, UniProt P23458); assay: Binding affinity to wild-type human partial length JAK1 JH1 catalytic domain (V856 to K1154 residues) expressed in bacterial expression system by Kinomescan method relative to control
Sequence of Tyrosine-protein kinase JAK1 (P23458 whole entry, the tested form may be a part): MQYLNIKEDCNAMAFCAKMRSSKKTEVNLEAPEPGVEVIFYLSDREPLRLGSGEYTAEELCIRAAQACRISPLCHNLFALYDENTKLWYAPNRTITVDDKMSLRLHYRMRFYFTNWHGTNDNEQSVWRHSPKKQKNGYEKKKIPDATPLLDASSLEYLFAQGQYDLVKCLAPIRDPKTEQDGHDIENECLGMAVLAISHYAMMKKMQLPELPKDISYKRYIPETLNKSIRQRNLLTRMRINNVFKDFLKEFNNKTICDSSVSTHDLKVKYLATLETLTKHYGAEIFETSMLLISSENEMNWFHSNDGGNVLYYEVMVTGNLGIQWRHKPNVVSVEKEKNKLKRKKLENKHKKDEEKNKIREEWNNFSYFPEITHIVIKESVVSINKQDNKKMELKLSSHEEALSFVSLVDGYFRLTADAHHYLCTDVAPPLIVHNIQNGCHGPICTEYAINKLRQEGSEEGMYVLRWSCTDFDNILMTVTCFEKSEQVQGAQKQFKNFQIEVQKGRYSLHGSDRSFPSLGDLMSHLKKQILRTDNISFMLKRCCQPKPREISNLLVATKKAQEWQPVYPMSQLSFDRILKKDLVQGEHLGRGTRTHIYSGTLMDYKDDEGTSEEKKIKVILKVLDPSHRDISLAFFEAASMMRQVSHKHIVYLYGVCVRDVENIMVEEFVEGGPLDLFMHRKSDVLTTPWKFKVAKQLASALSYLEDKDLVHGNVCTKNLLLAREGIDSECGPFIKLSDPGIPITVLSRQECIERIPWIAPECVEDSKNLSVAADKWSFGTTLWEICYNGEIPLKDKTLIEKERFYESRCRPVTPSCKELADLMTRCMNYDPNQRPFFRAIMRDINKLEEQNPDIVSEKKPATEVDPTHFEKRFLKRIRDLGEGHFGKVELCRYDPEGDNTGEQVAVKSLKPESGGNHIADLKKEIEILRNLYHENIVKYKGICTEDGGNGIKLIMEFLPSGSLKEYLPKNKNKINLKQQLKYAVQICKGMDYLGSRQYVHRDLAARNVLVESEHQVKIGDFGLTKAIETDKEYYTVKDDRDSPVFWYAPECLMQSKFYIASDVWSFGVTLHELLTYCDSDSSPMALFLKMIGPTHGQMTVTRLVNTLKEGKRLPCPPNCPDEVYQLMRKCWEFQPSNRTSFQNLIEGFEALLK

## C[C@@H](Nc1ccc2[nH]nc(/C=C/c3ccccn3)c2c1)c1cc(F)cc(F)c1
[1]
  inhibition: Active
[2]
  inhibition: Active
[3]
  AUC(0-inf): 3.69 µM·h
[4]
  inhibition: Active
[5]
  pIC50: 5.51
[6]
  pKd: 8.26
[7]
  inhibition: Active
[8]
  pIC50: 6.61
[9]
  pKd: 7.12
[10]
  AUC(0-inf): 1.62 µM·h
[11]
  clearance: 24 mL/min/kg
[12]
  pKd: 6.85
[13]
  inhibition: Active
[14]
  inhibition: Active
[15]
  pKd: 6.89
